Literature values, collected in patent US7442671B2, “O-phenylphenol/alkoxylated amine wood protection compositions” (Contechem Inc., priority 2004, dated 2008).

In the case of Oc1ccccc1-c1ccccc1 [O-phenylphenol, o-phenylphenol], the solubility in water is listed as “only slightly soluble in water”.
